Laboratory results: PMC8472287, “Betulinic Acid Decorated with Polar Groups and Blue Emitting BODIPY Dye: Synthesis, Cytotoxicity, Cell-Cycle Analysis and Anti-HIV Profiling” (Biomedicines, 2021)

Columns and labels:
CCRF-CEM = assay: MTS cytotoxicity assay, CCRF-CEM; type: cell-based; conditions: Homo sapiens, 72 h, 3-day incubation
Text: (§1) All cells (if not indicated otherwise) were purchased from the American Tissue Culture Collection (ATCC; Manassas, VA, USA). The highly chemosensitive CCRF-CEM line is derived from T lymphoblastic leukaemia, K562 represent cells of chronic myelogenous leukaemia. Colorectal adenocarcinoma HCT116 cell line and its p53 gene knockout counterpart (HCT116p53−/−, Horizon Discovery Ltd., Cambridge, UK) were used as models to assess the impact of p53 deficiency on cell line sensitivity. A549 cells are derived from lung adenocarcinoma and U2OS from human osteosarcoma. CEM-DNR and K562-Tax are well-characterized daunorubicin and paclitaxel-resistant sublines of CCRF-CEM and K562. The CEM-DNR resistant cells overexpress the P-glycoprotein and LRP protein, the K562-Tax overexpress P-glycoprotein but is losing the expression of LRP, which is present at parental K562 cell line. P-glycoprotein belongs to the ABC transporters’ family and is involved in the primary and acquired multidrug resistance phenomenon by the efflux of toxic compounds, LRP protein is involved in the lysosomal degradation. MRC-5 and BJ cell lines were used as a non-tumour control and represent human fibroblasts. The cells were maintained in Nunc/Corning 80 cm^2 plastic tissue culture flasks and cultured in cell culture medium according to ATCC or Horizon recommendations (DMEM/RPMI 1640 with 5 g/L-glucose, 2 mM glutamine, 100 U/mL penicillin, […] streptomycin, 10% fetal calf serum, and NaHCO3).
(§2) To perform the cytotoxicity MTS assay, cell suspensions were prepared and diluted according to the cell type and the expected target cell density (25,000–35,000 cells/mL) based on cell growth characteristics. Cells were added by an automatic pipettor (30 μL) into 384 well microtiter plates. All tested compounds were dissolved in 100% DMSO and four-fold dilutions of the intended test concentration were added in 0.15 μL aliquots at time zero to the microtiter plate wells by the echo-acoustic liquid handler Echo550 (Labcyte, San Jose, CA, USA). The experiments were performed in technical duplicates and at least three biological replicates. The cells were incubated with the tested compounds for 72 h at 37 °C, in a 5% CO2 atmosphere at 99% humidity. At the end of the incubation period, the cells were assayed by using the MTS test. Aliquots (5 µL) of the MTS stock solution were pipetted into each well and incubated for an additional 1–4 h. After this incubation period, the optical density (OD) was measured at 490 nm with an Envision microplate reader (Perkin Elmer, Waltham, Massachusetts, USA). Tumour cell survival (TCS) was calculated using the following equation: TCS = (ODdrug-exposed well/mean ODcontrol wells) × 100%.

U2OS = assay: MTS cytotoxicity assay, U2OS; type: cell-based; conditions: Homo sapiens, 72 h, 3-day incubation
Text: as §1, §2

HCT116 = assay: MTS cytotoxicity assay, HCT116; type: cell-based; conditions: Homo sapiens, HCT-116, 72 h, 3-day incubation
Text: as §1, §2

CCRF-CEM lymphoblasts [1] = assay: Mitotic marker pH3Ser10 flow cytometry; type: cell-based, human; conditions: 5 × IC50
Description: (§3) CCRF-CEM cells were seeded in 6-well plates at a density of 1 × 10^6/well. […] Cells were then harvested, washed with cold 1 × PBS and fixed in ice-cold 70% ethanol. Fixed cells were incubated overnight at −20 °C, washed in hypotonic citrate buffer, treated with RNase (50 μg mL^−1) and incubated with propidium iodide for 15 min. DNA content was analysed using Becton Dickinson flow cytometer and cell cycle data were analysed in the program ModFitLT (Verity, Carrollton, TX, USA). Apoptosis was measured in a logarithmic model expressing the percentage of the particles with propidium content lower than cells in G0/G1 phase (<G1) of the cell cycle. The mitotic marker pH3Ser10 antibody (Sigma) and secondary anti-mouse-FITC antibody (Sigma) were used for labelling and subsequent flow cytometry analysis of ethanol-fixed CCRF-CEM cells.

CCRF-CEM lymphoblasts [2] = assay: Cell cycle and apoptosis analysis (flow cytometry, propidium iodide); type: cell-based, human; conditions: 5 × IC50
Description: as §3

in vitro = conditions: human
[3] = tested on: VSV-G pseudotyped HIV-1 particles; assay: microbe, parasite or virus in culture; type: cell-based; conditions: Human immunodeficiency virus 1, HEK293, 48 h, read-out: IC50i (50% infection inhibition)
K562-Tax = assay: MTS cytotoxicity assay, K562-Tax; type: cell-based; conditions: Homo sapiens, 72 h, K562-Tax (paclitaxel-resistant), 3-day incubation
Text: as §1, §2

HCT116p53−/− = assay: MTS cytotoxicity assay, HCT116p53−/−; type: cell-based; conditions: Homo sapiens, HCT116-p53-null, 72 h, HCT116p53−/− (null p53 gene), 3-day incubation
Text: as §1, §2

CEM-DNR = assay: MTS cytotoxicity assay, CEM-DNR; type: cell-based; conditions: Homo sapiens, 72 h, CEM-DNR (daunorubicin resistant), 3-day incubation
Text: as §1, §2

CCRF-CEM lymphoblasts [4] = assay: BrDU incorporation analysis (DNA synthesis); type: cell-based, human; conditions: 24 h incubation
Description: Cells were cultivated as in the method above and pulse-labelled with 10 μM 5-bromo-2-deoxyuridine (BrDU) for 30 min before collection to the test tubes. The cells were washed with cold 1 × PBS and fixed in ice-cold 70% ethanol. Before analysis, they were washed with 1 × PBS and incubated in 2M HCl for 30 min at room temperature. Following neutralization with 0.1M Na2B4O7 (borax), the cells were washed with 0.5% Tween-20 and 1% BSA in 1 × PBS. The cell pellets were stained using a primary anti-BrdU antibody (Exbio, Vestec, Czech Republic) for 30 min at room temperature and a secondary anti-mouse-FITC antibody (Sigma). The samples were then incubated with propidium iodide (0.1 mg mL^−1), treated with RNase A (0.5 mg mL^−1) for 1 h at room temperature in the dark and analysed as above.

K562 = assay: MTS cytotoxicity assay, K562; type: cell-based; conditions: Homo sapiens, 72 h, 3-day incubation
Text: as §1, §2

A549 = assay: MTS cytotoxicity assay, A549; type: cell-based; conditions: Homo sapiens, 72 h, 3-day incubation
Text: as §1, §2

[5] = tested on: CA-SP1 processing of HIV-1 Gag polyprotein; assay: Western blot of released virions with anti-HIV-1 CA antibody; type: cell-based
BJ = assay: MTS cytotoxicity assay, BJ; type: cell-based; conditions: Homo sapiens, 72 h, BJ normal fibroblasts, 3-day incubation
Text: as §1, §2

MRC-5 = assay: MTS cytotoxicity assay, MRC-5; type: cell-based; conditions: Homo sapiens, MRC5, 72 h, MRC-5 normal fibroblasts, 3-day incubation
Text: as §1, §2

CCRF-CEM lymphoblasts [6] = assay: BrU incorporation analysis (RNA synthesis); type: cell-based, human; conditions: 24 h, 5 × IC50 (high concentration)
U2OS-Nuc cell line = assay: Live cell imaging, pilot experiment; type: cell-based, human; conditions: 10 µM, 1 h incubation
Description: (§4) U2OS cell line (ATCC, USA) was transduced with premade lentiviral particles (Vectalis-TaKaRa, Japan) with sequences that express fluorescent protein tag mCherry targeted to specific subcellular locations. All cell lines were prepared according to the vendor’s instructions. The U2OS-Nuc cell line was prepared by using rLV.EF1.mCherry-Nuc-9 (cat. n. 0023VCT), containing a NLS sequence that imports protein into the nucleus. The U2OS-ER cell line was transduced by rLV.EF1.mCherry-ER-9 (cat. n. 0025VCT), which contains a calreticulin signal sequence and a KDEL sequence that associates protein with the endoplasmic reticulum. The U2OS-GA cell line was transduced by rLV.EF1.mCherry-Golgi-9 (cat. n. 0022VCT), containing a human GT precursor, a protein localized in Golgi Apparatus. The U2OS-Mito cell line was prepared by using rLV.EF1.mCherry-Mito-9 (cat. n. 0024VCT), containing a mitochondrial targeting sequence.
(§5) U2OS cells with fluorescent fusion proteins (density 1.0 × 10^3 per well) were seeded into 384 CellCarrier plates (Perkin Elmer, Waltham, MA, USA) and pre-incubated for 24 h at 37 °C and 5% CO2. The attached cells were treated with tested compounds in concentration 10 µM for 1 h and subsequently rinsed with fresh media. The live-cell imaging was performed by Cell Voyager CV7000 (Yokogawa, Tokyo, Japan) spinning disc confocal microscopy system at 37 °C in a 5% CO2 atmosphere. Live cells were monitored by a 60 × water immersion objective. The fluorescent signal was excited by lasers (405 nm and 561 nm) and the emission was filtered by bandpass filters (BP 445/45 and BP 595/20). All images were post-processed, and Pearson’s and Mander’s coefficients were calculated using the JACoP plugin in Image-J software.

[7] = tested on: U2OS-ER, U2OS-Mito and U2OS-GA cell lines; assay: Live cell colocalization experiments; type: cell-based, human; conditions: 10 µM, 1 h, Mander's coefficient
Description: as §4, §5

Row | Compound | IC50 (CCRF-CEM) [µM] | IC50 (U2OS) [µM] | IC50 (HCT116) [µM] | rate of cell division by mitotic marker pH3Ser10 (in words) (CCRF-CEM lymphoblasts [1]) | increase of the percentage of cells in the S-phase compared to untreated control (CCRF-CEM lymphoblasts [2]) | IC50 (in vitro) [µM] | IC50 [3] [µM] | IC50 (K562-Tax) [µM] | IC50 (HCT116p53−/−) [µM] | IC50 (CEM-DNR) [µM] | fraction of proliferating BrDU positive CCRF-CEM cells (in words) (CCRF-CEM lymphoblasts [4]) | cytotoxic effect in the cell line panel (in words) (entire cell line panel) | IC50 (K562) [µM] | IC50 (A549) [µM] | CA forms identified in released viruses (CA-SP1 processing) [5] | IC50 (BJ) [µM] | IC50 (MRC-5) [µM] | RNA synthesis by BrU (in words) (CCRF-CEM lymphoblasts [6]) | detection in living cells (U2OS-Nuc cell line) | colocalization with cellular structures [7]
1 | C=C(C)[C@@H]1CC[C@]2(C(=O)N3CCN(CCNC(=O)OC(C)(C)C)CC3)CC[C@]3(C)[C@H](CC[C@@H]4[C@@]5(C)CC[C@H](OC(C)=O)C(C)(C)[C@@H]5CC[C@]43C)[C@@H]12 [Compound 12, (3β)-28-(4-{2-[(Tert-butoxycarbonyl)amino]ethyl}piperazine-1-yl)-28-oxolup-20(29)-ene-3-yl acetate] | 9.62 | > 50 | > 50 | low rate of cell division | about 50% | > 40 | 31.9 | > 50 | > 50 | > 50 | increased the percentage of cells incorporating BrDU | inactive | > 50 | > 50 | Only completely processed p24 CA | > 50 | > 50 |  |  | 
2 | C=C(C)[C@@H]1CC[C@]2(C(=O)NCCCN=[N+]=[N-])CC[C@]3(C)[C@H](CC[C@@H]4[C@@]5(C)CC[C@H](OC(=O)CC(C)(C)C(=O)O)C(C)(C)[C@@H]5CC[C@]43C)[C@@H]12 [Compound 2, 4-{[(3β)-28-[(3-Azidopropyl)amino]-28-oxolup-20(29)-ene-3-yl]oxy}-2,2-dimethyl-4-oxo-butanoic acid] | 8.14 | 22.2 | 19.4 | low rate of cell division | about 50% | 36.4 | 11.7 | 15.9 | 29.2 | 10.2 | increased the percentage of cells incorporating BrDU | medium cytotoxicity | 26 | 22.9 | not only fully processed p24 CA, but also p25 CA-SP1 protein | 25.3 | 24.2 | stalled RNA synthesis |  | 
3 | CSC1=C2C=CC=[N+]2[B-](F)(F)n2cccc21 [BODIPY-SMe, 8-thiomethyl BODIPY, reference compound] |  |  |  |  |  |  |  |  |  |  |  |  |  |  |  |  |  |  | penetrate cell compartments | perfect colocalization in all studied cell lines
4 | C=C(C)[C@@H]1CC[C@]2(C(=O)NCCCNC3=C4C=CC=[N+]4[B-](F)(F)n4cccc43)CC[C@]3(C)[C@H](CC[C@@H]4[C@@]5(C)CC[C@H](O)C(C)(C)[C@@H]5CC[C@]43C)[C@@H]12 [Compound 4, (3β)-N-[N’-(4,4-Difluoro-4-bora-3a,4a-diaza-s-indacene-8-yl)-3-aminopropyl]-3-hydroxylup-20(29)-ene-28-amide] | 23.7 | > 50 | > 50 |  |  | > 40 | 44.1 | > 50 | > 50 | > 50 |  | inactive | > 50 | > 50 | Only completely processed p24 CA | > 50 | > 50 |  | detected in living cells | almost perfectly label mitochondria and endoplasmic reticulum
5 | O=C(O)CCNC1=C2C=CC=[N+]2[B-](F)(F)n2cccc21 [BODIPY-CO2H, 8-N-(β-Alanyl)amino-4,4-difluoro-4-bora-3a,4a-diaza-s-indacene] |  |  |  |  |  |  |  |  |  |  |  |  |  |  |  |  |  |  | not detected | 
